Assay results taken from patent US10584115B2, “Substituted pyridine and pyrazine BMI-1 inhibitors” (PTC Therapeutics, Inc., priority 2013, dated 2020).

System: Bmi-1 protein
Assay: Sandwich ELISA Assay (Bmi-1 protein level in HT-1080 cells after compound treatment)
Format: cell-based
Settings: Table 1, Bmi-1 sandwich ELISA, read-out: ELISA EC50 value for Bmi-1 protein
Procedure: Cell Seeding and Compound Treatment (Day 1):
HT-1080 cells were seeded at 8000 cells/well (50 μL) in 96-well tissue culture plates. After the cells became adherent (3-4 hours), 2× diluted stocks of test compounds in 50 μL DMEM containing 1% DMSO (final DMSO concentration was 0.5%) were added and the plates were incubated at 37° C. under 5% CO2 for 40-48 hours.
ELISA Plate First Antibody Preparation (Day 2):
The First Antibody (Millipore Mouse, monoclonal to mouse Bmi-1, clone F6, catalog #05-637) diluted to […] in PBS was added (100 μL) to each well of a Nunc MaxiSorp 96-well ELISA plate. The plate was covered with a plate seal and allowed to stand overnight.
Cell Lysate Preparation (Day 3):
Fresh Lysis buffer (1×) was prepared on the day of the assay as follows: 1 mM EDTA, 150 mM NaCl, 0.5% Triton-X 100, 10 mM NaF, 20 mM B-Glycerophosphate, 1 mM DTT (in PBS, pH 7.2-7.4) and HALT protease inhibitor cocktail (lx) (Pierce #78410).
A standard curve was prepared at the following Bmi-1 concentrations: 8000, 4000, 2000, 1000, 500, 250, 125 and 0 pg/mL. The Bmi-1 Recombinant Protein Standard (Novus Biologicals PCGF4 Recombinant Protein (P01), catalog # H00000648-P01) used to prepare the standard curve was stored at −80° C. On first thaw, the Recombinant Protein Standard was diluted to 10 μg/L in Blocking Buffer (1% BSA in PBS; BSA: Fisher Scientific Catalog #1600-100). Aliquots were taken and refrozen at −80° C. The aliquots may be kept at 4° C. and reused after first thaw, but only within 1-2 weeks. The Recombinant Protein Standard contains a GST-fusion tag that appears at approximately 70 Kda on Western Blot.
The prepared ELISA plate was washed 3× with Wash Buffer (0.05% Tween-20 in PBS). The final wash was removed from the plate and the plate was blotted dry. Blocking Buffer (300 μL) (1% BSA in PBS) was added to each well. The plate was covered with a plate seal and incubated at room temperature for 1 hour. The blocked plate was washed 3× with Wash Buffer, then the final wash was removed and the plate was blotted dry. The previously prepared samples and standards were added ([…]) and the plate was covered with a plate seal and incubated at 4° C. overnight.
The prepared ELISA plate was removed from incubation and allowed to stand at room temperature for 30 minutes, then washed and blotted dry. The Second Antibody (Cell Signaling Rabbit anti-Bmi-1, Cat #2830) diluted to 1:600 in Blocking Buffer was added (100 μL) to each well, except as needed for background control wells. The plate was covered with a plate seal and incubated for 1.5 hrs at room temperature.
The ELISA plate was washed and blotted dry as previously described. The Third Antibody (Cell Signaling HRP conjugated anti-rabbit IgG (CellSignaling, Cat #:7074) diluted to 1:300 in Blocking Buffer was added (100 μL) to each well, except as needed for background control wells. The plate was incubated for 1 hr at room temperature.
The plate was washed and blotted dry, then a previously prepared TMB substrate (TMB substrate kit, Pierce catalog #34021) (prepared by mixing kit reagents 1:1) (100 μL) was added per well. The plate was incubated for 20-30 minutes at room temperature in the dark, then Stop Solution (2 M sulfuric acid in water) (50 μL) was added per well. The plates were read at OD450 (experimental) and OD570 (reference).

Question: With `Fc1cc(Nc2cncc(-c3c(C(F)(F)F)nc4ccccn34)n2)ccc1C(F)(F)F` [Cpd 208, N-[3-fluoro-4-(trifluoromethyl)phenyl]-6-[2-(trifluoromethyl)imidazo[1,2-a]pyridin-3-yl]pyrazin-2-amine] as the compound, how does the EC50 read?
Answer: The EC50 was 10 to 100 nM.

Question: With `N#Cc1cc(Nc2ccc(OC(F)F)cc2)nc(-c2c(C(F)(F)F)nc3ccccn23)c1` [Cpd 217, 2-{[4-(difluoromethoxy)phenyl]amino}-6-[2-(trifluoromethyl)imidazo[1,2-a]pyridin-3-yl]pyridine-4-carbonitrile] as the compound, how does the EC50 read?
Answer: The EC50 was 1 to 10 nM.

Question: For `OCc1cc(Nc2ccc(C(F)(F)F)cc2)nc(-c2c(C(F)(F)F)nc3ccccn23)c1` [Cpd 219, (2-[2-(trifluoromethyl)imidazo[1,2-a]pyridin-3-yl]-6-{[4-(trifluoromethyl)phenyl]amino}pyridin-4-yl)methanol], which EC50 is on record?
Answer: Its EC50 is 10 to 100 nM.

Question: For `FC(F)Oc1ccc(Nc2cncc(-c3c(C(F)(F)F)nc4n3CCCC4)n2)cc1` [Cpd 233, N-[4-(difluoromethoxy)phenyl]-6-[2-(trifluoromethyl)-5,6,7,8-tetrahydroimidazo[1,2-a]pyridin-3-yl]pyrazin-2-amine], which EC50 is on record?
Answer: Its EC50 is 1 to 10 nM.

Question: With `FC(F)(F)Oc1ccc(Nc2cncc(-c3c(C(F)(F)F)nc4n3CCCC4)n2)cc1` [Cpd 234, N-[4-(trifluoromethoxy)phenyl]-6-[2-(trifluoromethyl)-5,6,7,8-tetrahydroimidazo[1,2-a]pyridin-3-yl]pyrazin-2-amine] as the compound, how does the EC50 read?
Answer: Its EC50 is 10 to 100 nM.

Question: `N#Cc1cc(Nc2ccc(OC(F)F)cc2)nc(-c2c(C(F)(F)F)nc3n2CCCC3)c1` [Cpd 237, 2-{[4-(difluoromethoxy)phenyl]amino}-6-[2-(trifluoromethyl)-5,6,7,8-tetrahydroimidazo[1,2-a]pyridin-3-yl]pyridine-4-carbonitrile] was tested. Which EC50 did it give?
Answer: Its EC50 is 1 to 10 nM.

Question: How did the EC50 turn out when `N#Cc1cc(Nc2ccc(OC(F)(F)F)cc2)nc(-c2c(C(F)(F)F)nc3n2CCCC3)c1` [Cpd 238, 2-{[4-(trifluoromethoxy)phenyl]amino}-6-[2-(trifluoromethyl)-5,6,7,8-tetrahydroimidazo[1,2-a]pyridin-3-yl]pyridine-4-carbonitrile] was run?
Answer: Its EC50 is 100 to 3000 nM.

Question: How did the EC50 turn out when `CC(N)c1ccc(Nc2cc(C#N)cc(-c3c(C(F)(F)F)nc4ccccn34)n2)cc1` (centres unmarked) [Cpd 257, 2-(4-(1-aminoethyl)phenylamino)-6-(2-(trifluoromethyl)imidazo[1,2-a]pyridin-3-yl)isonicotinonitrile] was run?
Answer: The EC50 was 100 to 3000 nM.

Question: `Cc1cnc(C)n1-c1cncc(Nc2ccc(C(F)(F)F)cc2)n1` [Cpd 355, 6-(2,5-dimethyl-1H-imidazol-1-yl)-N-[4-(trifluoromethyl)phenyl]pyrazin-2-amine] was tested. Which EC50 did it give?
Answer: The EC50 was 100 to 3000 nM.

Question: Which EC50 does the source give for `CCc1cnc(C)n1-c1cncc(Nc2ccc(C(F)(F)F)cc2)n1` [Cpd 372, 6-(5-ethyl-2-methyl-1H-imidazol-1-yl)-N-[4-(trifluoromethyl)phenyl]pyrazin-2-amine] here?
Answer: Its EC50 is 100 to 3000 nM.

Question: Which EC50 does the source give for `Cc1cc2nc(C)n(-c3cc(C#N)cc(Nc4ccc(C(F)(F)F)cc4)n3)c2cc1C` [Cpd 389, 2-{[4-(trifluoromethyl)phenyl]amino}-6-(2,5,6-trimethyl-1H-benzimidazol-1-yl)pyridine-4-carbonitrile] here?
Answer: Its EC50 is 100 to 3000 nM.

Question: How did the EC50 turn out when `CCO/C=C\c1cn(-c2cncc(Nc3ccc(C(F)(F)F)cc3)n2)c(C)n1` [Cpd 391, 6-{4-[(Z)-2-ethoxyethenyl]-2-methyl-1H-imidazol-1-yl}-N-[4-(trifluoromethyl)phenyl]pyrazin-2-amine] was run?
Answer: Its EC50 is 100 to 3000 nM.

Question: `CCc1ccc2nc(C)n(-c3cncc(Nc4ccc(C(F)(F)F)cc4)n3)c2c1` [Cpd 392, 6-(6-ethyl-2-methyl-1H-benzimidazol-1-yl)-N-[4-(trifluoromethyl)phenyl]pyrazin-2-amine] was tested. Which EC50 did it give?
Answer: Its EC50 is 100 to 3000 nM.

Question: With `Cc1cc(C)c2nc(C)n(-c3cncc(Nc4ccc(C(F)(F)F)cc4)n3)c2c1` [Cpd 421, N-[4-(trifluoromethyl)phenyl]-6-(2,4,6-trimethyl-1H-benzimidazol-1-yl)pyrazin-2-amine] as the compound, how does the EC50 read?
Answer: Its EC50 is 10 to 100 nM.

Question: `Cc1nc2c(F)cccc2n1-c1cc(C#N)cc(Nc2ccc(C(F)(F)F)cc2)n1` [Cpd 435, 2-(4-fluoro-2-methyl-1H-benzimidazol-1-yl)-6-{[4-(trifluoromethyl)phenyl]amino}pyridine-4-carbonitrile] was tested. Which EC50 did it give?
Answer: The EC50 was 10 to 100 nM.

Question: `Cc1nc2c(F)cccc2n1-c1cc(C#N)cc(Nc2ccc(OC(F)F)cc2)n1` [Cpd 436, 2-{[4-(difluoromethoxy)phenyl]amino}-6-(4-fluoro-2-methyl-1H-benzimidazol-1-yl)pyridine-4-carbonitrile] was tested. Which EC50 did it give?
Answer: The EC50 was 10 to 100 nM.

Question: With `Cc1nc2c(F)cc(F)cc2n1-c1cc(C#N)cc(Nc2ccc(C(F)(F)F)cc2)n1` [Cpd 447, 2-(4,6-difluoro-2-methyl-1H-benzimidazol-1-yl)-6-{[4-(trifluoromethyl)phenyl]amino}pyridine-4-carbonitrile] as the compound, how does the EC50 read?
Answer: The EC50 was 10 to 100 nM.

Question: With `Cc1nc2c(F)cc(F)cc2n1-c1cc(C#N)cc(Nc2ccc(OC(F)F)cc2)n1` [Cpd 448, 2-{[4-(difluoromethoxy)phenyl]amino}-6-(4,6-difluoro-2-methyl-1H-benzimidazol-1-yl)pyridine-4-carbonitrile] as the compound, how does the EC50 read?
Answer: The EC50 was 10 to 100 nM.

Question: With `Cc1nc2c(F)cc(F)cc2n1-c1cc(C#N)cc(Nc2ccc(OC(F)(F)F)cc2)n1` [Cpd 449, 2-(4,6-difluoro-2-methyl-1H-benzimidazol-1-yl)-6-{[4-(trifluoromethoxy)phenyl]amino}pyridine-4-carbonitrile] as the compound, how does the EC50 read?
Answer: The EC50 was 100 to 3000 nM.

Question: `Cc1nc2ccccc2n1-c1cc(F)cc(Nc2ccc(C(F)(F)F)cc2[N+](=O)[O-])n1` [Cpd 493, 4-fluoro-6-(2-methyl-1H-benzimidazol-1-yl)-N-[2-nitro-4-(trifluoromethyl)phenyl]pyridin-2-amine] was tested. Which EC50 did it give?
Answer: Its EC50 is 100 to 3000 nM.

Question: How did the EC50 turn out when `Cc1nc2ccccc2n1-c1cc(F)cc(Nc2ccc(C(F)(F)F)cc2)n1` [Cpd 494, 4-fluoro-6-(2-methyl-1H-benzimidazol-1-yl)-N-[4-(trifluoromethyl)phenyl]pyridin-2-amine] was run?
Answer: The EC50 was 10 to 100 nM.

Question: For `Cc1ccc(Nc2cccc(-n3c(C)nc4ccccc43)n2)cc1` [Cpd 581, 6-(2-methyl-1H-benzimidazol-1-yl)-N-(4-methylphenyl)pyridin-2-amine], which EC50 is on record?
Answer: The EC50 was 1 to 10 nM.

Same assay, conditions: read-out: ELISA EC50 value for Bmi-1 protein, Table 1, Bmi-1 sandwich ELISA

Question: Which EC50 does the source give for `Cc1nc2ccccc2n1-c1cc(C(N)=O)cc(Nc2ccc(C(F)(F)F)cc2)n1` [Cpd 203, 2-(2-methyl-1H-benzimidazol-1-yl)-6-{[4-(trifluoromethyl)phenyl]amino}pyridine-4-carboxamide] here?
Answer: The EC50 was 100 to 3000 nM.

Question: How did the EC50 turn out when `FC(F)(F)c1ccc(Nc2cncc(-c3c(C(F)(F)F)nc4n3CCCC4)n2)cc1` [Cpd 232, N-[4-(trifluoromethyl)phenyl]-6-[2-(trifluoromethyl)-5,6,7,8-tetrahydroimidazo[1,2-a]pyridin-3-yl]pyrazin-2-amine] was run?
Answer: Its EC50 is 1 to 10 nM.

Question: With `N#Cc1cc(Nc2ccc(C(F)(F)F)cc2)nc(-c2c(C(F)(F)F)nc3n2CCCC3)c1` [Cpd 236, 2-{[4-(trifluoromethyl)phenyl]amino}-6-[2-(trifluoromethyl)-5,6,7,8-tetrahydroimidazo[1,2-a]pyridin-3-yl]pyridine-4-carbonitrile] as the compound, how does the EC50 read?
Answer: The EC50 was 10 to 100 nM.

Question: With `COc1ccc(Nc2ccc(N)c(-c3c(C(F)(F)F)nc4ccccn34)n2)cc1` [Cpd 282, N^2-(4-methoxyphenyl)-6-[2-(trifluoromethyl)imidazo[1,2-a]pyridin-3-yl]pyridine-2,5-diamine] as the compound, how does the EC50 read?
Answer: Its EC50 is 100 to 3000 nM.

Question: With `Cc1nc(Cl)c(Cl)n1-c1cncc(Nc2ccc(C(F)(F)F)cc2)n1` [Cpd 297, 6-(4,5-dichloro-2-methyl-1H-imidazol-1-yl)-N-[4-(trifluoromethyl)phenyl]pyrazin-2-amine] as the compound, how does the EC50 read?
Answer: Its EC50 is 100 to 3000 nM.

Question: Which EC50 does the source give for `Cc1nc2ccccc2n1-c1cc(N)cc(Nc2ccc(C(F)(F)F)cc2)n1` [Cpd 492, 6-(2-methyl-1H-benzimidazol-1-yl)-N^2-[4-(trifluoromethyl)phenyl]pyridine-2,4-diamine] here?
Answer: Its EC50 is 10 to 100 nM.

Question: How did the EC50 turn out when `COc1ccc(Nc2nc(-n3c(C)nc4ccccc43)ccc2N)cc1` [Cpd 518, N^2-(4-methoxyphenyl)-6-(2-methyl-1H-benzimidazol-1-yl)pyridine-2,3-diamine] was run?
Answer: Its EC50 is 10 to 100 nM.
